Source: article PMC4770093, “The role of kinetic context in apparent biased agonism at GPCRs” (Nature Communications, 2016)

Columns and labels:
[1] = molecular target: SNAP-tagged human dopamine D2L (Homo sapiens, UniProt P14416); assay: Tag-lite PPHT-red competition kinetic binding (HTRF); conditions: SNAP-D2LR-CHO membranes; 100 μM Gpp(NH)p; 37 °C
Experimental: To terbium label the SNAP-CHO-D2L cells, cell culture medium was removed from the T175 cm^2 flasks containing confluent adherent SNAP-CHO-D2L cells. Twelve millilitres of Tag-lite labelling medium containing 100 nM of SNAP-Lumi4-Tb was added to the flask and incubated for 1 h at 37 °C under 5% CO2. Cells were then washed 2 × in 15 ml PBS (GIBCO, Invitrogen, Paisley, UK) to remove the excess of SNAP-Lumi4-Tb and detached using 5 ml of enzyme-free Hank's-based cell dissociation buffer (GIBCO, Invitrogen, Paisley, UK) and collected in a vial containing 5 ml of DMEM/Nutrient F-12 Ham, 2 mM glutamine supplemented 10% FCS. Cells were pelleted by centrifugation (5 min at 1,500 r.p.m.) and the pellets were frozen to −80 °C before preparation of membranes.
All subsequent steps described were conducted at 4 °C, to avoid receptor degradation. Twenty millilitres of wash buffer (10 mM HEPES and 10 mM EDTA pH 7.4) was added to the pellet of terbium-labelled cells (equivalent to 1 × t175 cm^2). […] The supernatant was discarded and the pellet was homogenized and centrifuged as described above in wash buffer. The final pellet was suspended in ice-cold 10 mM HEPES and 0.1 mM EDTA pH 7.4, at a concentration of 5–10 mg m^−1. Protein concentration was determined by the bicinchoninic acid assay using BSA as a standard and aliquots maintained at −80 °C until required. Before their use, the frozen membranes were thawed and the membranes suspended in the assay buffer at a membrane concentration of 0.1 mg m^−1.
GppNHp was included to remove the G protein-coupled population of receptors that can result in two binding sites in membrane preparations, because the Motulsky–Mahan model is only appropriate for ligands competing at a single site. […] Both fluorescent ligands and unlabelled compounds were diluted in the binding assay buffer.
Kinetics acquisitions at intervals of 20 s were recorded using the standard settings of the reader for HTRF measurements. […] Specific binding was determined by subtracting the nonspecific HTRF ratio from the total HTRF ratio.
To accurately determine association rate (kon) and dissociation rate (koff) values, the observed rate of association (kob) was calculated using at least four different concentrations of PPHT-red. The appropriate concentration of PPHT-red was incubated in a 384-well Optiplate with human SNAP-D2LR-CHO cell membranes (2 μg per well) in assay binding buffer at 37 °C (final assay volume, 40 μl). The degree of PPHT-red bound to the receptor was assessed at multiple time points by HTRF detection, to allow construction of association kinetic curves. The resulting data were globally fitted to the association kinetic model (equation (8)) to derive a single best-fit estimate for kon and koff as described under ‘Data analysis'.
On the same 384-well Optiplate plate, the kinetic parameters of unlabelled ligand were assessed using a competition kinetic binding assay. This approach involves the simultaneous addition of both fluorescent ligand and competitor to receptor preparation so that at t=0 all receptors are unoccupied. […] The degree of PPHT-red bound to the receptor was assessed at multiple time points by HTRF detection. Nonspecific binding was determined as the amount of HTRF signal detected in the presence of spiperone (1 μM) and was subtracted from each time point. Each time point was conducted on the same 384-well plate incubated at 37 °C with shaking (100 r.p.m.) after every cycle.
Data were globally fitted using equation (7), to simultaneously calculate kon and koff.

D2R = assay: Simulation of receptor occupancy over time from kon and koff; conditions: simulation with a KD concentration of each agonist
Source text: We extended these studies with a Tag-lite receptor binding assay using a D2R construct with an amino-terminal SNAP tag and the fluorescently labelled agonist (±)-4′-amino-2-(N-phenethyl-N-propyl)-amino-5-hydroxytetralin (PPHT). […] The association rate of a ligand is often thought to be diffusion limited. […] Using these kinetic parameters, we performed a simulation to estimate the receptor occupancy of a KD concentration of each agonist over time (Fig. 4e).
Kinetic binding parameters of kon (a), koff (b) and t1/2 (c) were determined in a competition kinetic binding assay using a Tag-lite binding assay and the fluorescently labelled agonist PPHT as the tracer ligand (Supplementary Table 6). […] All values are expressed as mean±s.e.m. from three experiments. (e) The values of kon and koff obtained in the competition kinetic assay were used to simulate receptor occupancy over time using equation (9) and the concentration of ligand equivalent to its KD (see Supplementary Table 6).
where Ymax reflects maximum binding of a concentration of ligand and kob is determined by equation (8).

SNAP-tagged human dopamine D2L, sequence (P14416 whole entry): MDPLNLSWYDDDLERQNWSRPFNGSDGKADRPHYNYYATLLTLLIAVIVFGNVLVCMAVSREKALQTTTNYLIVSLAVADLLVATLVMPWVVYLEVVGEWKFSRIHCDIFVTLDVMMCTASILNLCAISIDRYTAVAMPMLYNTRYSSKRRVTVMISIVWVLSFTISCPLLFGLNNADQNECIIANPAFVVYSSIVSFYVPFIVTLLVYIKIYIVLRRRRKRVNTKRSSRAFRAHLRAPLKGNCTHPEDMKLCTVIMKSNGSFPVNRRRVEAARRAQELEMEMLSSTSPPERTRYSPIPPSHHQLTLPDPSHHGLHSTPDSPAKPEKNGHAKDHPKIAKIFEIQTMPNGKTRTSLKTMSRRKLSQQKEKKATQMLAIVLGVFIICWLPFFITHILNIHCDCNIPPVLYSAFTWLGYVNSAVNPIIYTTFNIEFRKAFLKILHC

## CCCN(CCc1ccc(N)cc1)C1CCc2c(O)cccc2C1 (racemic) [PPHT, (±)-4′-amino-2-(N-phenethyl-N-propyl)-amino-5-hydroxytetralin]
[1]
  rate of dissociation of the fluorescent tracer: 0.45 min⁻¹

## CN(C)C(=O)N[C@H]1CC[C@H](CCN2CCN(c3cccc(Cl)c3Cl)CC2)CC1 [Cariprazine, cariprazine]
D2R
  time to maximal receptor occupancy: ~10 min

## NCCc1ccc(O)c(O)c1 [Dopamine, dopamine]
D2R
  time to maximal receptor occupancy: ≤ 1 min
